Data from US20040157738A1, “Novel oxygen containing fused cyclic derivatives and herbicidal, desiccant and defoliate compositions containing them” (ISHIHARA SANGYO KAISHA, LTD., priority 2003, published 2004).

Key:
Type in all cases: in vivo
[1] = test system: velvetleaf (Abutilon theophrasti), ABUTH; test: Test Example 2: post-emergence (foliage treatment) herbicidal activity (growth controlling degree); conditions: 0.3-0.4 leaf stage
Description: (§1) Upland field soil was put into a 1/170,000 ha pot, and seeds of various plants were sown. Then, when the plants reached predetermined leaf stages [I. barnyardgrass (Echinochloa crus-galli L.), ECHCG: 1.8-2.4 leaf stage, 2. crabgrass (Digitaria sanguinalis L.), DIGSA: 1.5-2.2 leaf stage, 3. green foxtail (Setaria viridis L.), SETVI: 1.7-2.5 leaf stage, 4. redroot pigweed (Amaranthus retroflexus L.), AMARE: 0.1-0.3 leaf stage, 5. prickly sida (Sida spinosa L.), SIDSP: 0.3-0.5 leaf stage, 6. velvetleaf (Abutilon theophrasti), ABUTH: 0.3-0.4 leaf stage, 7. common cocklebur (Xanthium strumarium L.), XANST: 0.2-0.6 leaf stage, 8. rice (Oryza sativa L.), ORYSA: 1.6-2.2 leaf stage, 9. wheat (Triticum aestivum L.), TRZAX: 2.8 leaf stage, 10. corn (Zea mays L.), ZEAMX: 2.2-2.5 leaf stage, 11. soybean (Glycine max Merr.), GLXMA: 0.2-0.3 leaf stage], a wettable powder or emulsifiable concentrate having the compound of the present invention formulated in accordance with a usual formulation method, was weighed so that the active ingredient would be a predetermined amount, and diluted with water in an amount of 500 L/ha. To the diluted solution, 0.1%(v/v) of an agricultural spreader was added. The herbicide adjusted was applied by a small size sprayer for foliage treatment. On the […] day after the application of the herbicide, the growth of the respective plants was visually observed, and the herbicidal effects were evaluated by growth controlling degrees (%) ranging from 0 (equivalent to the untreated control) to 100 (complete kill), whereby the results shown in Table 12, were obtained. Compound Nos. in Table 12 correspond to Compound Nos. in Table 1 to 7 given hereinbefore.

[2] = test system: corn (Zea mays L.), ZEAMX; test: as above; conditions: 2.2-2.5 leaf stage
Description: as §1

[3] = test system: rice (Oryza sativa L.), ORYSA; test: as above; conditions: 1.6-2.2 leaf stage
Description: as §1

[4] = test system: prickly sida (Sida spinosa L.), SIDSP; test: as above; conditions: 0.3-0.5 leaf stage
Description: as §1

[5] = test system: common cocklebur (Xanthium strumarium L.), XANST; test: as above; conditions: 0.2-0.6 leaf stage
Description: as §1

[6] = test system: crabgrass (Digitaria sanguinalis L.), DIGSA; test: as above; conditions: 1.5-2.2 leaf stage
Description: as §1

[7] = test system: soybean (Glycine max Merr.), GLXMA; test: as above; conditions: 0.2-0.3 leaf stage
Description: as §1

[8] = test system: barnyardgrass (Echinochloa crus-galli L.), ECHCG; test: as above; conditions: 1.8-2.4 leaf stage
Description: as §1

[9] = test system: redroot pigweed (Amaranthus retroflexus L.), AMARE; test: as above; conditions: 0.1-0.3 leaf stage
Description: as §1

[10] = test system: green foxtail (Setaria viridis L.), SETVI; test: as above; conditions: 1.7-2.5 leaf stage
Description: as §1

[11] = test system: velvetleaf (Abutilon theophrasti): ABUTH; test: Test Example 1: pre-emergence herbicidal activity (growth controlling degree); conditions: 20th to 21st day after application
Description: (§2) Upland field soil was put into a 1/170,000 ha pot, and seeds of various plants [1. barnyardgrass (Echinochloa crus-galli L.): ECHCC, 2. crabgrass (Digitaria sanguinalis L.): DIGSA, 3. green foxtail (Setaria viridis L.): SETVI, 4. redroot pigweed (Amaranthus retroflexus L.): AMARE, 5. prickly sida (Sida spinosa L.): SIDSP, 6. velvetleaf (Abutilon theophrasti): ABUTH, 7. common cocklebur (Xanthium strumarium L.): XANST, 8. rice (Oryza sativa L.): ORYSA, 9. wheat (Triticum aestivum L.): TRZAX, 10. corn (Zea mays L.): ZEAMX, 11. soybean (Glycine max Merr.): GLXMA] were sown. Then, one day after the sowing, a wettable powder or emulsifiable concentrate having the compound of the present invention formulated in accordance with a usual formulation method, was weighed so that the active ingredient would be a predetermined amount, and diluted with water in an amount of 500 L/ha. The herbicide adjusted was applied by a small size sprayer for pre-emergence treatment. On the 20th to 21st day after the application of the herbicide, the growth of the respective plants was visually observed, and the herbicidal effects were evaluated by growth controlling degrees (%) ranging from 0 (equivalent to the untreated control) to 100 (complete kill), whereby the results shown in Table 11, were obtained. Compound Nos. in Table 11 correspond to Compound Nos. in Table 1 to 7 given hereinbefore.

[12] = test system: crabgrass (Digitaria sanguinalis L.): DIGSA; test: as above; conditions: 20th to 21st day after application
Description: as §2

[13] = test system: prickly sida (Sida spinosa L.): SIDSP; test: as above; conditions: 20th to 21st day after application
Description: as §2

[14] = test system: soybean (Glycine max Merr.): GLXMA; test: as above; conditions: 20th to 21st day after application
Description: as §2

[15] = test system: corn (Zea mays L.): ZEAMX; test: as above; conditions: 20th to 21st day after application
Description: as §2

[16] = test system: green foxtail (Setaria viridis L.): SETVI; test: as above; conditions: 20th to 21st day after application
Description: as §2

[17] = test system: common cocklebur (Xanthium strumarium L.): XANST; test: as above; conditions: 20th to 21st day after application
Description: as §2

[18] = test system: barnyardgrass (Echinochloa crus-galli L.): ECHCC; test: as above; conditions: 20th to 21st day after application
Description: as §2

[19] = test system: redroot pigweed (Amaranthus retroflexus L.): AMARE; test: as above; conditions: 20th to 21st day after application
Description: as §2

[20] = test system: rice (Oryza sativa L.): ORYSA; test: as above; conditions: 20th to 21st day after application
Description: as §2

In the case of `CC1CCc2c(c(Cl)cc(F)c2-c2nn(C)c(OC(F)F)c2Cl)O1` (centres unmarked) [Compound 1-39], the pest or weed control at 31 g/ha ([1]; Abutilon theophrasti, 504 h, 31 g a.i./ha) is reported as 100%, the plant injury at 31 g/ha ([2]; Zea mays, 504 h, 31 g a.i./ha) is reported as 98% and the plant injury at 31 g/ha ([3]; Oryza sativa, 504 h, 31 g a.i./ha) is reported as 98%. The pest or weed control at 31 g/ha ([4]; Sida spinosa, 504 h, 31 g a.i./ha) was 100%, the pest or weed control at 31 g/ha ([5]; Xanthium strumarium, 504 h, 31 g a.i./ha) was 100% and the pest or weed control at 31 g/ha ([6]; Digitaria sanguinalis, 504 h, 31 g a.i./ha, read-out: growth controlling degree, DIGSP) was 100%. The pest or weed control at 31 g/ha ([7]; Glycine max, 504 h, 31 g a.i./ha) was 100%, the pest or weed control at 31 g/ha ([8]; Echinochloa crus-galli, 504 h, 31 g a.i./ha) was 100% and the “growth controlling degree, AMARE” value ([9]; 31 g a.i./ha) was 100%. For the same compound, the pest or weed control at 31 g/ha ([10]; Setaria viridis, 504 h, 31 g a.i./ha) was 100%, the “growth controlling degree, ABUTH” value ([11]; 250 g a.i./ha) was 100% and the “growth controlling degree, DIGSP” value ([12]; 250 g a.i./ha) was 100%. For the same compound, the “growth controlling degree, SIDSP” value ([13]; 250 g a.i./ha) was 100%, the “growth controlling degree, GLXMA” value ([14]; 250 g a.i./ha) was 30% and the “growth controlling degree, ZEAMX” value ([15]; 250 g a.i./ha) was 70%. For the same compound, the “growth controlling degree, SETVI” value ([16]; 250 g a.i./ha) was 100%, the “growth controlling degree, XANST” value ([17]; 250 g a.i./ha) was 100% and the “growth controlling degree, ECHCG” value ([18]; 250 g a.i./ha) was 100%. For the same compound, the “growth controlling degree, AMARE” value ([19]; 250 g a.i./ha) was 100% and the “growth controlling degree, ORYSA” value ([20]; 250 g a.i./ha) was 50%.
Compound `Cn1nc(-c2c(F)cc(Cl)c3c2CCC(c2ccccc2)O3)c(Cl)c1OC(F)F` (centres unmarked) [Compound 1-42] has a pest or weed control at 63 g/ha ([1]; Abutilon theophrasti, 504 h, 63 g a.i./ha) of 100%, a plant injury at 63 g/ha ([2]; Zea mays, 504 h, 63 g a.i./ha) of 30% and a plant injury at 63 g/ha ([3]; Oryza sativa, 504 h, 63 g a.i./ha) of 70%. The pest or weed control at 63 g/ha ([4]; Sida spinosa, 504 h, 63 g a.i./ha) was 100%, the pest or weed control at 63 g/ha ([5]; Xanthium strumarium, 504 h, 63 g a.i./ha) was 100% and the pest or weed control at 63 g/ha ([6]; Digitaria sanguinalis, 504 h, 63 g a.i./ha, read-out: growth controlling degree, DIGSP) was 50%. For the same compound, the pest or weed control at 63 g/ha ([7]; Glycine max, 504 h, 63 g a.i./ha) was 60%, the pest or weed control at 63 g/ha ([8]; Echinochloa crus-galli, 504 h, 63 g a.i./ha) was 60% and the “growth controlling degree, AMARE” value ([9]; 63 g a.i./ha) was 100%. For the same compound, the pest or weed control at 63 g/ha ([10]; Setaria viridis, 504 h, 63 g a.i./ha) was 98%, the “growth controlling degree, ABUTH” value ([11]; 250 g a.i./ha) was 50% and the “growth controlling degree, DIGSP” value ([12]; 250 g a.i./ha) was 100%. The “growth controlling degree, SIDSP” value ([13]; 250 g a.i./ha) was 80%, the “growth controlling degree, GLXMA” value ([14]; 250 g a.i./ha) was 10% and the “growth controlling degree, ZEAMX” value ([15]; 250 g a.i./ha) was 10%. For the same compound, the “growth controlling degree, SETVI” value ([16]; 250 g a.i./ha) was 100%, the “growth controlling degree, XANST” value ([17]; 250 g a.i./ha) was 0% and the “growth controlling degree, ECHCG” value ([18]; 250 g a.i./ha) was 100%. For the same compound, the “growth controlling degree, AMARE” value ([19]; 250 g a.i./ha) was 100% and the “growth controlling degree, ORYSA” value ([20]; 250 g a.i./ha) was 40%.
`CC1CCc2c(c(Cl)cc(F)c2-c2nn3c(c2Cl)CCCC3)O1` (centres unmarked) [Compound 1-85] was tested, and the “growth controlling degree, ABUTH” value ([1]; 31 g a.i./ha) was 100%, the “growth controlling degree, ZEAMX” value ([2]; 31 g a.i./ha) was 50% and the “growth controlling degree, ORYSA” value ([3]; 31 g a.i./ha) was 40%. The “growth controlling degree, SIDSP” value ([4]; 31 g a.i./ha) was 95%, the “growth controlling degree, XANST” value ([5]; 31 g a.i./ha) was 100% and the “growth controlling degree, DIGSP” value ([6]; 31 g a.i./ha) was 40%. The “growth controlling degree, GLXMA” value ([7]; 31 g a.i./ha) was 50%, the “growth controlling degree, ECHCG” value ([8]; 31 g a.i./ha) was 70% and the “growth controlling degree, AMARE” value ([9]; 31 g a.i./ha) was 70%. For the same compound, the “growth controlling degree, SETVI” value ([10]; 31 g a.i./ha) was 80%, the “growth controlling degree, ABUTH” value ([11]; 250 g a.i./ha) was 30% and the “growth controlling degree, DIGSP” value ([12]; 250 g a.i./ha) was 60%. The “growth controlling degree, SIDSP” value ([13]; 250 g a.i./ha) was 20%, the “growth controlling degree, GLXMA” value ([14]; 250 g a.i./ha) was 0% and the “growth controlling degree, ZEAMX” value ([15]; 250 g a.i./ha) was 10%. For the same compound, the “growth controlling degree, SETVI” value ([16]; 250 g a.i./ha) was 80%, the “growth controlling degree, XANST” value ([17]; 250 g a.i./ha) was 0% and the “growth controlling degree, ECHCG” value ([18]; 250 g a.i./ha) was 60%. The “growth controlling degree, AMARE” value ([19]; 250 g a.i./ha) was 95% and the “growth controlling degree, ORYSA” value ([20]; 250 g a.i./ha) was 10%.
In the case of `CCCCCC1CCc2c(c(Cl)cc(F)c2-c2nn(C)c(OC(F)F)c2Cl)O1` (centres unmarked) [Compound 1-101], the “growth controlling degree, ABUTH” value ([1]; 31 g a.i./ha) is reported as 100%, the “growth controlling degree, ZEAMX” value ([2]; 31 g a.i./ha) is reported as 70% and the “growth controlling degree, ORYSA” value ([3]; 31 g a.i./ha) is reported as 60%. For the same compound, the “growth controlling degree, SIDSP” value ([4]; 31 g a.i./ha) was 100%, the “growth controlling degree, XANST” value ([5]; 31 g a.i./ha) was 100% and the “growth controlling degree, DIGSP” value ([6]; 31 g a.i./ha) was 100%. For the same compound, the “growth controlling degree, GLXMA” value ([7]; 31 g a.i./ha) was 70%, the “growth controlling degree, ECHCG” value ([8]; 31 g a.i./ha) was 100% and the “growth controlling degree, AMARE” value ([9]; 31 g a.i./ha) was 100%. For the same compound, the “growth controlling degree, SETVI” value ([10]; 31 g a.i./ha) was 100%, the “growth controlling degree, ABUTH” value ([11]; 125 g a.i./ha) was 60% and the “growth controlling degree, DIGSP” value ([12]; 125 g a.i./ha) was 100%. For the same compound, the “growth controlling degree, SIDSP” value ([13]; 125 g a.i./ha) was 80%, the “growth controlling degree, GLXMA” value ([14]; 125 g a.i./ha) was 10% and the “growth controlling degree, ZEAMX” value ([15]; 125 g a.i./ha) was 40%. The “growth controlling degree, SETVI” value ([16]; 125 g a.i./ha) was 100%, the “growth controlling degree, XANST” value ([17]; 125 g a.i./ha) was 30% and the “growth controlling degree, ECHCG” value ([18]; 125 g a.i./ha) was 80%. For the same compound, the “growth controlling degree, AMARE” value ([19]; 125 g a.i./ha) was 100% and the “growth controlling degree, ORYSA” value ([20]; 125 g a.i./ha) was 30%.
